According to publication PMC7525662, “Preclinical dosimetry models and the prediction of clinical doses of novel positron emission tomography radiotracers” (Scientific Reports, 2020):
Marks after values point to notes of the source that are not given here. One block for each molecule: values may come before it.

Legend:
Parameters in all cases: species or system Sprague–Dawley rats
[1] = Residence times in rat source organs from whole-body PET, iterative reconstruction; details: in vivo, iv
Description: Immediately after radiotracer administration, a 240 min emission scan using 4 beds (50% overlap) was obtained using 3-dimensional 1:5 mode and re-binned as follows: 7 × 1 min, 2 × 5 min and 4 × 10 min. Throughout the PET/CT scanning session, animal temperature and respiration rate were monitored and controlled. PET studies were reconstructed using filtered-back projection (FBP) and Mediso’s iterative Tera-Tomo 3D reconstruction algorithm with the following settings: 4 iterations, 6 subsets, full detector model, normal regularization, spike filter on, voxel size 0.4 mm and 400‒600 keV energy window. PET data were corrected for randoms, scatter and attenuation. […] Then, PMOD’s contours interpolation tool was used to interpolate ROIs for each organ into a corresponding volume-of-interest (VOI). A static cuboidal VOI was also drawn to include the animal whole-body. Time-activity curves for each source organ, whole-body and remainder of the body were plotted. […] Residence times (τ) were determined for each radiotracer in source organs, whole-body and remaining (any activity assigned to the whole-body but not assigned to a source organ). Each preclinical source organ’s τ was determined by calculating the area under its respective time-activity curve (activity normalised to the percentage maximum injected dose as a function of time) using the trapezoid method. […] From each individual animal, eight dosimetry models were constructed from all possible combinations of image reconstruction method (FBP or iterative), τ (non-normalised or normalised to human organ masses), and sex of phantom (male or female).

[2] = OLINDA/EXM predicted clinical doses: adult female phantom, normalised τ, FBP; details: rat, in vivo
Description: (§1) PET studies were reconstructed using filtered-back projection (FBP) and Mediso’s iterative Tera-Tomo 3D reconstruction algorithm with the following settings: 4 iterations, 6 subsets, full detector model, normal regularization, spike filter on, voxel size 0.4 mm and 400‒600 keV energy window. PET data were corrected for randoms, scatter and attenuation. Time-activity curves for each source organ, whole-body and remainder of the body were plotted. […] Residence times (τ) were determined for each radiotracer in source organs, whole-body and remaining (any activity assigned to the whole-body but not assigned to a source organ). Each preclinical source organ’s τ was determined by calculating the area under its respective time-activity curve (activity normalised to the percentage maximum injected dose as a function of time) using the trapezoid method. […] From each individual animal, eight dosimetry models were constructed from all possible combinations of image reconstruction method (FBP or iterative), τ (non-normalised or normalised to human organ masses), and sex of phantom (male or female). Supplementary table 8. Predicted clinical absorbed organ doses and whole-body effective doses of PET radiotracers using normalised adult female source organ residence times from filtered backprojection reconstructions.

[3] = OLINDA/EXM predicted clinical doses: adult female phantom, non-normalised τ, iterative; details: rat, in vivo
Description: as §1, with “table 10.” for “table 8.”, “using non-normalised (preclinical)” for “using normalised”, “from iterative” for “from filtered backprojection”

Residence Time (h), Average: Brain [1]: 0.00225 h | Residence Time (h), Average: Heart [1]: 0.00473 h | Residence Time (h), Average: Intestine [1]: 0.212 h | Residence Time (h), Average: Kidneys [1]: 0.0652 h | Residence Time (h), Average: Liver [1]: 0.0391 h | Residence Time (h), Average: Lungs [1]: 0.00647 h | Residence Time (h), Average: Remaining [1]: 0.996 h | Residence Time (h), Average: Urinary Bladder [1]: 1.44 h | Effective Dose (mSv/MBq), Average ± SD [2]: 2.71E-02 mSv/MBq | Estimated Absorbed Dose of Organ, Average: Adrenals [2]: 1.41E-02 mGy/MBq | Estimated Absorbed Dose of Organ, Average: Brain [2]: 4.10E-03 mGy/MBq | Estimated Absorbed Dose of Organ, Average: Breasts [2]: 1.02E-02 mGy/MBq | Estimated Absorbed Dose of Organ, Average: Gallbladder Wall [2]: 1.36E-02 mGy/MBq | Estimated Absorbed Dose of Organ, Average: Heart Wall [2]: 1.39E-02 mGy/MBq | Estimated Absorbed Dose of Organ, Average: Kidneys [2]: 1.95E-02 § mGy/MBq | Estimated Absorbed Dose of Organ, Average: LLI Wall [2]: 6.76E-02 ‡ mGy/MBq | Estimated Absorbed Dose of Organ, Average: Liver [2]: 8.65E-03 mGy/MBq | Estimated Absorbed Dose of Organ, Average: Lungs [2]: 1.10E-02 mGy/MBq | Estimated Absorbed Dose of Organ, Average: Muscle [2]: 1.29E-02 mGy/MBq | Estimated Absorbed Dose of Organ, Average: Osteogenic Cells [2]: 2.00E-02 mGy/MBq | Estimated Absorbed Dose of Organ, Average: Ovaries [2]: 2.14E-02 mGy/MBq | Estimated Absorbed Dose of Organ, Average: Pancreas [2]: 1.47E-02 mGy/MBq | Estimated Absorbed Dose of Organ, Average: Red Marrow [2]: 1.23E-02 mGy/MBq | Estimated Absorbed Dose of Organ, Average: Skin [2]: 9.76E-03 mGy/MBq | Estimated Absorbed Dose of Organ, Average: Small Intestine [2]: 1.64E-02 mGy/MBq | Estimated Absorbed Dose of Organ, Average: Spleen [2]: 1.38E-02 mGy/MBq | Estimated Absorbed Dose of Organ, Average: Stomach Wall [2]: 1.41E-02 mGy/MBq | Estimated Absorbed Dose of Organ, Average: Thymus [2]: 1.28E-02 mGy/MBq | Estimated Absorbed Dose of Organ, Average: Thyroid [2]: 1.16E-02 mGy/MBq | Estimated Absorbed Dose of Organ, Average: Total Body [2]: 1.31E-02 mGy/MBq | Estimated Absorbed Dose of Organ, Average: ULI Wall [2]: 1.62E-02 mGy/MBq | Estimated Absorbed Dose of Organ, Average: Urinary Bladder Wall [2]: 1.54E-01 † mGy/MBq | Estimated Absorbed Dose of Organ, Average: Uterus [2]: 2.28E-02 mGy/MBq | Effective Dose [3]: 8.22E-02 mSv/MBq | Estimated Absorbed Dose of Organ, Adrenals [3]: 9.77E-03 mGy/MBq | Estimated Absorbed Dose of Organ, Brain [3]: 1.87E-03 mGy/MBq | Estimated Absorbed Dose of Organ, Breasts [3]: 5.49E-03 mGy/MBq | Estimated Absorbed Dose of Organ, Gallbladder Wall [3]: 1.07E-02 mGy/MBq | Estimated Absorbed Dose of Organ, Heart Wall [3]: 7.79E-03 mGy/MBq | Estimated Absorbed Dose of Organ, Kidneys [3]: 4.85E-02§ mGy/MBq | Estimated Absorbed Dose of Organ, LLI Wall [3]: 1.68E-01 ‡ mGy/MBq | Estimated Absorbed Dose of Organ, Liver [3]: 1.06E-02 mGy/MBq | Estimated Absorbed Dose of Organ, Lungs [3]: 5.19E-03 mGy/MBq | Estimated Absorbed Dose of Organ, Muscle [3]: 1.30E-02 mGy/MBq | Estimated Absorbed Dose of Organ, Osteogenic Cells [3]: 1.30E-02 mGy/MBq | Estimated Absorbed Dose of Organ, Ovaries [3]: 4.12E-02 mGy/MBq | Estimated Absorbed Dose of Organ, Pancreas [3]: 9.72E-03 mGy/MBq | Estimated Absorbed Dose of Organ, Red Marrow [3]: 1.18E-02 mGy/MBq | Estimated Absorbed Dose of Organ, Skin [3]: 7.18E-03 mGy/MBq | Estimated Absorbed Dose of Organ, Small Intestine [3]: 2.22E-02 mGy/MBq | Estimated Absorbed Dose of Organ, Spleen [3]: 9.42E-03 mGy/MBq | Estimated Absorbed Dose of Organ, Stomach Wall [3]: 9.44E-03 mGy/MBq | Estimated Absorbed Dose of Organ, Thymus [3]: 6.68E-03 mGy/MBq | Estimated Absorbed Dose of Organ, Thyroid [3]: 5.90E-03 mGy/MBq | Estimated Absorbed Dose of Organ, ULI Wall [3]: 1.78E-02 mGy/MBq | Estimated Absorbed Dose of Organ, Urinary Bladder Wall [3]: 9.66E-01 † mGy/MBq | Estimated Absorbed Dose of Organ, Uterus [3]: 6.04E-02 mGy/MBq | Estimated Absorbed Dose, Total Body [3]: 1.33E-02 mGy/MBq
Molecule: NOTA-RGDfK [existing Al^18F-labelled NOTA-RGDfK peptide PET radiotracer; precursor NOTA-RGDfK (1)]

Residence Time (h), Average: Brain [1]: 0.0254 h | Residence Time (h), Average: Heart [1]: 0.0387 h | Residence Time (h), Average: Intestine [1]: 0.287 h | Residence Time (h), Average: Kidneys [1]: 0.0499 h | Residence Time (h), Average: Liver [1]: 0.0417 h | Residence Time (h), Average: Lungs [1]: 0.0166 h | Residence Time (h), Average: Remaining [1]: 1.35 h | Residence Time (h), Average: Urinary Bladder [1]: 1.15 h | Effective Dose (mSv/MBq), Average ± SD [2]: 3.21E-02 mSv/MBq | Estimated Absorbed Dose of Organ, Average: Adrenals [2]: 1.55E-02 mGy/MBq | Estimated Absorbed Dose of Organ, Average: Brain [2]: 1.10E-02 mGy/MBq | Estimated Absorbed Dose of Organ, Average: Breasts [2]: 1.16E-02 mGy/MBq | Estimated Absorbed Dose of Organ, Average: Gallbladder Wall [2]: 1.48E-02 mGy/MBq | Estimated Absorbed Dose of Organ, Average: Heart Wall [2]: 4.52E-02 mGy/MBq | Estimated Absorbed Dose of Organ, Average: Kidneys [2]: 1.70E-02 § mGy/MBq | Estimated Absorbed Dose of Organ, Average: LLI Wall [2]: 1.07E-01 † mGy/MBq | Estimated Absorbed Dose of Organ, Average: Liver [2]: 1.01E-02 mGy/MBq | Estimated Absorbed Dose of Organ, Average: Lungs [2]: 1.82E-02 mGy/MBq | Estimated Absorbed Dose of Organ, Average: Muscle [2]: 1.40E-02 mGy/MBq | Estimated Absorbed Dose of Organ, Average: Osteogenic Cells [2]: 2.19E-02 mGy/MBq | Estimated Absorbed Dose of Organ, Average: Ovaries [2]: 2.42E-02 mGy/MBq | Estimated Absorbed Dose of Organ, Average: Pancreas [2]: 1.63E-02 mGy/MBq | Estimated Absorbed Dose of Organ, Average: Red Marrow [2]: 1.37E-02 mGy/MBq | Estimated Absorbed Dose of Organ, Average: Skin [2]: 1.06E-02 mGy/MBq | Estimated Absorbed Dose of Organ, Average: Small Intestine [2]: 1.83E-02 mGy/MBq | Estimated Absorbed Dose of Organ, Average: Spleen [2]: 1.51E-02 mGy/MBq | Estimated Absorbed Dose of Organ, Average: Stomach Wall [2]: 1.57E-02 mGy/MBq | Estimated Absorbed Dose of Organ, Average: Thymus [2]: 1.48E-02 mGy/MBq | Estimated Absorbed Dose of Organ, Average: Thyroid [2]: 1.27E-02 mGy/MBq | Estimated Absorbed Dose of Organ, Average: Total Body [2]: 1.46E-02 mGy/MBq | Estimated Absorbed Dose of Organ, Average: ULI Wall [2]: 1.75E-02 mGy/MBq | Estimated Absorbed Dose of Organ, Average: Urinary Bladder Wall [2]: 1.18E-01 ‡ mGy/MBq | Estimated Absorbed Dose of Organ, Average: Uterus [2]: 2.28E-02 mGy/MBq | Effective Dose [3]: 7.95E-02 mSv/MBq | Estimated Absorbed Dose of Organ, Adrenals [3]: 1.20E-02 mGy/MBq | Estimated Absorbed Dose of Organ, Brain [3]: 6.80E-03 mGy/MBq | Estimated Absorbed Dose of Organ, Breasts [3]: 7.63E-03 mGy/MBq | Estimated Absorbed Dose of Organ, Gallbladder Wall [3]: 1.27E-02 mGy/MBq | Estimated Absorbed Dose of Organ, Heart Wall [3]: 3.36E-02 mGy/MBq | Estimated Absorbed Dose of Organ, Kidneys [3]: 3.95E-02 mGy/MBq | Estimated Absorbed Dose of Organ, LLI Wall [3]: 2.13E-01 ‡ mGy/MBq | Estimated Absorbed Dose of Organ, Liver [3]: 1.20E-02 mGy/MBq | Estimated Absorbed Dose of Organ, Lungs [3]: 8.85E-03 mGy/MBq | Estimated Absorbed Dose of Organ, Muscle [3]: 1.42E-02 mGy/MBq | Estimated Absorbed Dose of Organ, Osteogenic Cells [3]: 1.64E-02 mGy/MBq | Estimated Absorbed Dose of Organ, Ovaries [3]: 4.21E-02 mGy/MBq | Estimated Absorbed Dose of Organ, Pancreas [3]: 1.23E-02 mGy/MBq | Estimated Absorbed Dose of Organ, Red Marrow [3]: 1.35E-02 mGy/MBq | Estimated Absorbed Dose of Organ, Skin [3]: 8.59E-03 mGy/MBq | Estimated Absorbed Dose of Organ, Small Intestine [3]: 2.39E-02 mGy/MBq | Estimated Absorbed Dose of Organ, Spleen [3]: 1.16E-02 mGy/MBq | Estimated Absorbed Dose of Organ, Stomach Wall [3]: 1.21E-02 mGy/MBq | Estimated Absorbed Dose of Organ, Thymus [3]: 9.63E-03 mGy/MBq | Estimated Absorbed Dose of Organ, Thyroid [3]: 8.07E-03 mGy/MBq | Estimated Absorbed Dose of Organ, ULI Wall [3]: 1.93E-02 mGy/MBq | Estimated Absorbed Dose of Organ, Urinary Bladder Wall [3]: 7.75E-01 † mGy/MBq | Estimated Absorbed Dose of Organ, Uterus [3]: 5.40E-02 § mGy/MBq | Estimated Absorbed Dose, Total Body [3]: 1.49E-02 mGy/MBq
Molecule: O=C[C@H]([18F])[C@@H](O)[C@H](O)[C@H](O)CO [FDG, 2-deoxy-2-[^18F]fluoro-D-glucose]
